According to patent US20240400555A1 (Initial Therapeutics, Inc., priority 2023, published 2024):
Read-outs that look alike come from different tables or passages of the source.

Tested on: MV-4-11 cells
Assay: Cell Viability Assay in MV-4-11 Cells
Type: cell-based
Details: Homo sapiens, MV4-11, 72 h
Procedure, shortened: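 MV-4-11 cells at 7,000/well in IMDM with 10% FBS, exposed to compound for 72 h. Viability by CellTiter-Glo luminescence, normalized to DMSO as 100%, fitted with a four-parameter curve.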

[1] = MV-4-11 cells, 72 h, Cell-Titer Glo, read-out: IC50

Compound | IC50 [1] [nM] | IC50 [nM]
CCc1nnc(-c2ccc(C(=O)N(c3nccc4cccc(C)c34)[C@@H]3CCCNC3)nc2)s1 [Example 673, 5-(5-ethyl-1,3,4-thiadiazol-2-yl)-N-(8-methyl-1-isoquinolyl)-N-[(3R)-3-piperidyl]pyridine-2-carboxamide] | 240 | 
C=C(C)c1csc2c(N(C(=O)c3ccc(-c4cn(C)nn4)cc3F)[C@@H]3CCCNC3)nccc12 [Example 675, 2-fluoro-N-(3-isopropenylthieno[2,3-c]703yridine-7-yl)-4-(1-methyltriazol-4-yl)-N-[(3R)-3-piperidyl]benzamide] |  | > 1000
C#Cc1csc2c(N(C(=O)c3ccc(-c4cn(C)nn4)cc3F)[C@@H]3CCCNC3)nccc12 [Example 676, N-(3-ethynylthieno[2,3-c]704yridine-7-yl)-2-fluoro-4-(1-methyltriazol-4-yl)-N-[(3R)-3-piperidyl]benzamide] | 190 | 
Cc1csc2c(N(C(=O)c3ccc(-c4cn(C)nn4)cc3F)[C@@H]3CCCNC3)nccc12 [Example 677, (R)-2-fluoro-4-(1-methyl-1H-1,2,3-triazol-4-yl)-N-(3-methylthieno[2,3-c]pyridin-7-yl)-N-(piperidin-3-yl)benzamide] | 1400 | 
Cn1cc(-c2ccc(C(=O)N(c3nccc4c(Cl)csc34)[C@@H]3CCCNC3)c(F)c2)nn1 [Example 678, N-(3-chlorothieno[2,3-c]705yridine-7-yl)-2-fluoro-4-(1-methyltriazol-4-yl)-N-[(3R)-3-piperidyl]benzamide] | 350 | 
Cc1cccc2ccnc(N(C(=O)c3ccc(Nc4nccc(C5CCC(O)CC5)n4)cc3F)[C@@H]3CCCNC3)c12 (stereo partly drawn) [Example 679, (R)-2-fluoro-4-((4-(4-hydroxycyclohexyl)pyrimidin-2-yl)amino)-N-(8-methylisoquinolin-1-yl)-N-(piperidin-3-yl)benzamide] | 200 | 
Cc1cccc2ccnc(N(C(=O)c3ccc(Nc4nccc(Nc5ccncc5)n4)cc3F)[C@@H]3CCCNC3)c12 [Example 683, (R)-2-fluoro-N-(8-methylisoquinolin-1-yl)-N-(piperidin-3-yl)-4-((4-(pyridin-4-ylamino)pyrimidin-2-yl)amino)benzamide] | 210 | 
Cc1cccc2ccnc(N(C(=O)c3ccc(Nc4nccc(CN5CCNCC5)n4)cc3F)[C@@H]3CCCNC3)c12 [Example 686, (R)-2-fluoro-N-(8-methylisoquinolin-1-yl)-4-((4-(piperazin-1-ylmethyl)pyrimidin-2-yl)amino)-N-(piperidin-3-yl)benzamide] | 460 | 
CNC(=O)c1ccc2c(N(C(=O)c3ccc(-c4cn(C)nn4)cc3F)[C@@H]3CCCNC3)nccc2c1 [Example 688, (R)-1-(2-fluoro-4-(1-methyl-1H-1,2,3-triazol-4-yl)-N-(piperidin-3-yl)benzamido)-N-methylisoquinoline-6-carboxamide] |  | > 4500
Cc1cn(-c2ccc(C(=O)N(c3nccc4scc(C)c34)[C@@H]3CCCNC3)c(F)c2)nn1 [Example 690, (R)-2-fluoro-4-(4-methyl-1H-1,2,3-triazol-1-yl)-N-(3-methylthieno[3,2-c]pyridin-4-yl)-N-(piperidin-3-yl)benzamide] | 150 | 
C=C(C)c1ccc2c(N(C(=O)c3ccc(-c4cn(C)nn4)cc3F)[C@@H]3CCCNC3)nccc2c1 [Example 692, (R)-2-fluoro-4-(1-methyl-1H-1,2,3-triazol-4-yl)-N-(piperidin-3-yl)-N-(6-(prop-1-en-2-yl)isoquinolin-1-yl)benzamide] | 350 | 

Continued by falling IC50 [1], values first:

IC50 [1] [nM] | Compound | IC50 [nM]
120 | Cc1cn(-c2ccc(C(=O)N(c3nccc4scc(C)c34)[C@@H]3CCCNC3)cc2)nn1 [Example 689, (R)-4-(4-methyl-1H-1,2,3-triazol-1-yl)-N-(3-methylthieno[3,2-c]pyridin-4-yl)-N-(piperidin-3-yl)benzamide] | 
120 | Cc1cccc2ccnc(N(C(=O)c3ccc(Nc4nccc(NCc5nccs5)n4)cc3F)[C@@H]3CCCNC3)c12 [Example 693, (R)-2-fluoro-N-(8-methylisoquinolin-1-yl)-N-(piperidin-3-yl)-4-((4-((thiazol-2-ylmethyl)amino)pyrimidin-2-yl)amino)benzamide] | 
110 | Cc1cn(-c2ccc(C(=O)N(c3nccc4cc(Cl)cc(C)c34)[C@@H]3CCCNC3)c(F)c2)nn1 [Example 691, (R)—N-(6-chloro-8-methylisoquinolin-1-yl)-2-fluoro-4-(4-methyl-1H-1,2,3-triazol-1-yl)-N-(piperidin-3-yl)benzamide] | 
100 | C#Cc1csc2ccnc(N(C(=O)c3ccc(-c4cn(C)nn4)cc3F)[C@@H]3CCCNC3)c12 [Example 674, (R)—N-(3-ethynylthieno[3,2-c]pyridin-4-yl)-2-fluoro-4-(1-methyl-1H-1,2,3-triazol-4-yl)-N-(piperidin-3-yl)benzamide] | 
83 | Cc1cccc2ccnc(N(C(=O)c3ccc(Nc4nccc(C5=CCN(C)CC5)n4)cc3F)[C@@H]3CCCNC3)c12 [Example 682, (R)-2-fluoro-4-((4-(1-methyl-1,2,3,6-tetrahydropyridin-4-yl)pyrimidin-2-yl)amino)-N-(8-methylisoquinolin-1-yl)-N-(piperidin-3-yl)benzamide] | 
75 | Cc1cccc2ccnc(N(C(=O)c3ccc(Nc4nccc(N5CC(O)C5)n4)cc3F)[C@@H]3CCCNC3)c12 [Example 680, (R)-2-fluoro-4-((4-(3-hydroxyazetidin-1-yl)pyrimidin-2-yl)amino)-N-(8-methylisoquinolin-1-yl)-N-(piperidin-3-yl)benzamide] | 
59 | Cc1cccc2ccnc(N(C(=O)c3ccc(Nc4nccc(N5CC[C@@H](O)C5)n4)cc3F)[C@@H]3CCCNC3)c12 [Example 684, 2-fluoro-4-((4-((R)-3-hydroxypyrrolidin-1-yl)pyrimidin-2-yl)amino)-N-(8-methylisoquinolin-1-yl)-N—((R)-piperidin-3-yl)benzamide] | 
49 | Cc1cccc2ccnc(N(C(=O)c3ccc(Nc4nccc(C5=CCOCC5)n4)cc3F)[C@@H]3CCCNC3)c12 [Example 685, (R)-4-((4-(3,6-dihydro-2H-pyran-4-yl)pyrimidin-2-yl)amino)-2-fluoro-N-(8-methylisoquinolin-1-yl)-N-(piperidin-3-yl)benzamide] | 
46 | Cc1cccc2ccnc(N(C(=O)c3ccc(Nc4nccc(NCc5cnn(C)c5)n4)cc3F)[C@@H]3CCCNC3)c12 [Example 694, (R)-2-fluoro-4-((4-(((1-methyl-1H-pyrazol-4-yl)methyl)amino)pyrimidin-2-yl)amino)-N-(8-methylisoquinolin-1-yl)-N-(piperidin-3-yl)benzamide] | 
40 | Cc1cccc2ccnc(N(C(=O)c3ccc(Nc4nccc(CN5CCCCC5)n4)cc3F)[C@@H]3CCCNC3)c12 [Example 687, (R)-2-fluoro-N-(8-methylisoquinolin-1-yl)-4-((4-(piperidin-1-ylmethyl)pyrimidin-2-yl)amino)-N-(piperidin-3-yl)benzamide] | 
32 | Cc1cccc2ccnc(N(C(=O)c3ccc(Nc4nccc(C5=CCC(O)CC5)n4)cc3F)[C@@H]3CCCNC3)c12 (stereo partly drawn) [Example 681, 2-fluoro-4-((4-(4-hydroxycyclohex-1-en-1-yl)pyrimidin-2-yl)amino)-N-(8-methylisoquinolin-1-yl)-N—((R)-piperidin-3-yl)benzamide] | 
